Assay results as given in ChEMBL document CHEMBL1134043, “Allosteric inhibition of fructose-1,6-bisphosphatase by anilinoquinazolines” (Bioorg Med Chem Lett, 2001).

How the values were obtained:
[1] = biological target: T1, Fructose-1,6-bisphosphatase 1 (Sus scrofa, UniProt P00636); experiment: Compound was evaluated for its concentration required to inhibit the porcine kidney F16BPase
T1 sequence (P00636 whole entry): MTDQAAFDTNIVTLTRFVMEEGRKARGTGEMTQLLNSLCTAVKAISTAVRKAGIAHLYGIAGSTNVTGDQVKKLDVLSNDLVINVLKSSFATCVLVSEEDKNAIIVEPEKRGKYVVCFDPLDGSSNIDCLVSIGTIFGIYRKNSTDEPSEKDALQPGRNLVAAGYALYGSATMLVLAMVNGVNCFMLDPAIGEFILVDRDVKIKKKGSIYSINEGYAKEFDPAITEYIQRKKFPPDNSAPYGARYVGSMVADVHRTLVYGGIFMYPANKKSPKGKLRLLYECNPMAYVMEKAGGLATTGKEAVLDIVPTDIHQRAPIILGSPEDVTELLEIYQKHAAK

[2] = species on record: Oryctolagus cuniculus; experiment: Compound was evaluated for its concentration required to inhibit the rabbit liver F16BPase; assay type: functional
[3] = biological target: T2, Fructose-1,6-bisphosphatase 1 (Rattus norvegicus, UniProt P19112); experiment: Compound was evaluated for its concentration required to inhibit the rat liver F16BPase
T2 sequence (P19112 whole entry): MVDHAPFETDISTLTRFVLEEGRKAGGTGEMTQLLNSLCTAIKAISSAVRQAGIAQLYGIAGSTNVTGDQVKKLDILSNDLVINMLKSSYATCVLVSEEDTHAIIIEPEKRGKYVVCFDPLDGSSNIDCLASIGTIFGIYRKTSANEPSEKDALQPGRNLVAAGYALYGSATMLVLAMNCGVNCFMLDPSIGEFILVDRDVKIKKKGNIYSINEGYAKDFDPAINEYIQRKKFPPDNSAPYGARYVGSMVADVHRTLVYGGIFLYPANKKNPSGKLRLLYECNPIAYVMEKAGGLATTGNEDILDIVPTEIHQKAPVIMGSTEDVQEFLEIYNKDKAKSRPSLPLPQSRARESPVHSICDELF

[4] = biological target: T3, Fructose-1,6-bisphosphatase 1 (Homo sapiens, UniProt P09467); experiment: Concentration required to inhibit the human liver recombinant fructose-1,6-bisphosphatase.
T3 sequence (P09467 whole entry): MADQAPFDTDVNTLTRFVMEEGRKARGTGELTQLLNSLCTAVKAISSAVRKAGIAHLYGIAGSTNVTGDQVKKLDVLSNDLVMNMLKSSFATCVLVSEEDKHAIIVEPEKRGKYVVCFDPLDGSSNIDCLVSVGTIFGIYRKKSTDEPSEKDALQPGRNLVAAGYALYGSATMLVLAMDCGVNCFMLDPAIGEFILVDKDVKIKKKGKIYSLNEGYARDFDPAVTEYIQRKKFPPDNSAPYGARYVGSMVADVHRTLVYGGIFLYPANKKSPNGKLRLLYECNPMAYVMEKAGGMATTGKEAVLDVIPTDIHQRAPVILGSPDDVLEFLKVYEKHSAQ

## COc1cc2ncnc(Nc3cccc(Br)c3)c2cc1OC
[1]
  IC50: > 10 µM
[2]
  IC50: > 10 µM
[3]
  IC50: > 10 µM

## CCOc1cc2ncnc(Nc3cccc(F)c3)c2cc1OCC
[4]
  IC50: 9.2 µM

## COc1cc2nc(C)nc(Nc3cccc(Br)c3)c2cc1OC
[4]
  IC50: 4.5 µM

## COc1cc2ncnc(Nc3ccc(F)c(Cl)c3)c2cc1OC
[1]
  IC50: 0.34 µM
[2]
  IC50: > 10 µM
[3]
  IC50: > 10 µM
[4]
  IC50: 0.29 µM

## CCOc1cc2ncnc(Nc3ccc(C)c(Cl)c3)c2cc1OCC
[4]
  IC50: > 10 µM

## O=C(O)c1ccc2c(Nc3cccc(Br)c3)ncnc2c1
[4]
  IC50: > 10 µM

## CC(C)Oc1ccc2ncnc(Nc3cccc(Br)c3)c2c1
[4]
  IC50: > 10 µM

## C#Cc1cccc(Nc2ncnc3cc(OC)c(OC)cc23)c1
[1]
  IC50: 1.6 µM
[2]
  IC50: > 10 µM
[3]
  IC50: > 10 µM
[4]
  IC50: 0.9 µM

## CCOc1cc2nc(CN(CC)CC)nc(Nc3cccc(Br)c3)c2cc1OCC
[4]
  IC50: > 10 µM

## CCOc1cc2nc(CN3CCOCC3)nc(Nc3cccc(Br)c3)c2cc1OCC
[4]
  IC50: > 10 µM

## CCOc1cc2ncnc(Nc3cccc(Br)c3)c2cc1OCC
[1]
  IC50: > 10 µM
[2]
  IC50: > 10 µM
[3]
  IC50: > 10 µM
[4]
  IC50: 1.7 µM

## CCN(CC)c1nc(Nc2cccc(Br)c2)c2cc(OC)c(OC)cc2n1
[4]
  IC50: > 10 µM

## CCOc1cc2nc(-c3ccccc3)nc(Nc3cccc(Br)c3)c2cc1OCC
[4]
  IC50: > 10 µM

## CCOc1cc2nc(Cc3ccccc3)nc(Nc3cccc(Br)c3)c2cc1OCC
[4]
  IC50: > 10 µM

## C#Cc1cccc(Nc2ncnc3cc(OCC)c(OCC)cc23)c1
[4]
  IC50: 2.4 µM

## CCCCOc1ccc2ncnc(Nc3cccc(Br)c3)c2c1
[4]
  IC50: > 10 µM

## CCOc1cc2nc(CS(C)(=O)=O)nc(Nc3cccc(Br)c3)c2cc1OCC
[4]
  IC50: > 10 µM

## Nc1cc2c(Nc3cccc(Br)c3)ncnc2cc1Cl
[4]
  IC50: 11.9 µM

## CCOc1cc2ncnc(Nc3ccc(Cl)c(Cl)c3)c2cc1OCC
[4]
  IC50: > 10 µM

## CCOc1cc2ncnc(Nc3ccc(F)c(Cl)c3)c2cc1OCC
[1]
  IC50: 3.1 µM
[2]
  IC50: > 10 µM
[3]
  IC50: > 10 µM
[4]
  IC50: 0.53 µM

## Brc1cccc(Nc2ncnc3cc4ccccc4cc23)c1
[4]
  IC50: 7.5 µM

## CCOc1cc2nc(CC(C)C)nc(Nc3cccc(Br)c3)c2cc1OCC
[4]
  IC50: > 10 µM

## COCCOc1cc2c(Nc3cccc(Br)c3)ncnc2cc1OC
[4]
  IC50: 5.5 µM

## COCCOc1cc2ncnc(Nc3cccc(Br)c3)c2cc1OCCOC
[4]
  IC50: > 10 µM

## CCOc1cc2ncnc(Nc3cccc(Cl)c3)c2cc1OCC
[1]
  IC50: 3.9 µM
[2]
  IC50: > 10 µM
[3]
  IC50: > 10 µM
[4]
  IC50: 1.6 µM

## COc1cc2ncnc(Nc3cccc(Br)c3)c2cc1[N+](=O)[O-]
[4]
  IC50: > 10 µM

## CCOc1cc2ncnc(Nc3ccccc3)c2cc1OCC
[4]
  IC50: > 10 µM

## C#Cc1cc(Nc2ncnc3cc(OC)c(OC)cc23)ccc1F
[1]
  IC50: 0.77 µM
[2]
  IC50: > 10 µM
[3]
  IC50: > 10 µM
[4]
  IC50: 0.25 µM

## COCCOc1ccc2ncnc(Nc3cccc(Br)c3)c2c1
[4]
  IC50: 2.9 µM

## CCOc1cc2ncnc(Nc3cccc(I)c3)c2cc1OCC
[4]
  IC50: 2.1 µM

## Brc1cccc(Nc2ncnc3cc4nc[nH]c4cc23)c1
[4]
  IC50: 4 µM

## O=[N+]([O-])c1cc2c(Nc3cccc(Br)c3)ncnc2cc1Cl
[4]
  IC50: > 10 µM

## CCOc1cc2ncnc(Nc3cccc(Br)c3)c2cc1[N+](=O)[O-]
[4]
  IC50: 3.6 µM

## CCOc1cc2nc(CCl)nc(Nc3cccc(Br)c3)c2cc1OCC
[4]
  IC50: > 10 µM

## CCOc1cc2ncnc(Nc3cccc(C#N)c3)c2cc1OCC
[4]
  IC50: > 10 µM

## COc1cc2ncnc(Nc3cccc(Cl)c3)c2cc1OC [TYRPHOSTIN AG-1478]
[1]
  IC50: > 10 µM
[2]
  IC50: > 10 µM
[3]
  IC50: > 10 µM
[4]
  IC50: 1.3 µM
